One experiment concerns the target human insulin receptor (Homo sapiens, UniProt P06213). Nature of the experiment: Assay (I): insulin receptor binding, SPA microtiterplate antibody capture assay. Conditions: purified recombinant human insulin receptor - exon 11; A14 Tyr[125I]-human insulin tracer; human insulin = 100%. The method, then: Insulin Receptor Binding of the Acylated, Single-Chain Insulin
The affinity of the acylated, single-chain insulins for the human insulin receptor can be determined by a SPA assay (Scintillation Proximity Assay) microtiterplate antibody capture assay. SPA-PVT antibody-binding beads, anti-mouse reagent (Amersham Biosciences, Cat No. PRNQ0017) are mixed with 25 ml of binding buffer (100 mM HEPES pH 7.8; 100 mM sodium chloride, 10 mM MgSO4, 0.025% Tween-20). Reagent mix for a single Packard Optiplate (Packard No. 6005190) is composed of 2.4 μl of a 1:5000 diluted purified recombinant human insulin receptor—exon 11, an amount of a stock solution of A14 Tyr[125I]-human insulin corresponding to 5000 cpm per 100 μl of reagent mix, 12 μl of a 1:1000 dilution of F12 antibody, 3 ml of SPA-beads and binding buffer to a total of 12 ml. A total of 100 μl is then added and a dilution series is made from appropriate samples. To the dilution series is then added 100 μl of reagent mix and the samples are incubated for 16 hours while gently shaken. The phases are then separated by centrifugation for 1 min and the plates counted in a Topcounter. The binding data are fitted using the nonlinear regression algorithm in the GraphPad Prism 2.01 (GraphPad Software, San Diego, Calif.).
Sequence of purified recombinant human insulin receptor-exon 11 (human) (P06213 other isoform, or with tags, fused parts or gaps limits assumed, form in doubt): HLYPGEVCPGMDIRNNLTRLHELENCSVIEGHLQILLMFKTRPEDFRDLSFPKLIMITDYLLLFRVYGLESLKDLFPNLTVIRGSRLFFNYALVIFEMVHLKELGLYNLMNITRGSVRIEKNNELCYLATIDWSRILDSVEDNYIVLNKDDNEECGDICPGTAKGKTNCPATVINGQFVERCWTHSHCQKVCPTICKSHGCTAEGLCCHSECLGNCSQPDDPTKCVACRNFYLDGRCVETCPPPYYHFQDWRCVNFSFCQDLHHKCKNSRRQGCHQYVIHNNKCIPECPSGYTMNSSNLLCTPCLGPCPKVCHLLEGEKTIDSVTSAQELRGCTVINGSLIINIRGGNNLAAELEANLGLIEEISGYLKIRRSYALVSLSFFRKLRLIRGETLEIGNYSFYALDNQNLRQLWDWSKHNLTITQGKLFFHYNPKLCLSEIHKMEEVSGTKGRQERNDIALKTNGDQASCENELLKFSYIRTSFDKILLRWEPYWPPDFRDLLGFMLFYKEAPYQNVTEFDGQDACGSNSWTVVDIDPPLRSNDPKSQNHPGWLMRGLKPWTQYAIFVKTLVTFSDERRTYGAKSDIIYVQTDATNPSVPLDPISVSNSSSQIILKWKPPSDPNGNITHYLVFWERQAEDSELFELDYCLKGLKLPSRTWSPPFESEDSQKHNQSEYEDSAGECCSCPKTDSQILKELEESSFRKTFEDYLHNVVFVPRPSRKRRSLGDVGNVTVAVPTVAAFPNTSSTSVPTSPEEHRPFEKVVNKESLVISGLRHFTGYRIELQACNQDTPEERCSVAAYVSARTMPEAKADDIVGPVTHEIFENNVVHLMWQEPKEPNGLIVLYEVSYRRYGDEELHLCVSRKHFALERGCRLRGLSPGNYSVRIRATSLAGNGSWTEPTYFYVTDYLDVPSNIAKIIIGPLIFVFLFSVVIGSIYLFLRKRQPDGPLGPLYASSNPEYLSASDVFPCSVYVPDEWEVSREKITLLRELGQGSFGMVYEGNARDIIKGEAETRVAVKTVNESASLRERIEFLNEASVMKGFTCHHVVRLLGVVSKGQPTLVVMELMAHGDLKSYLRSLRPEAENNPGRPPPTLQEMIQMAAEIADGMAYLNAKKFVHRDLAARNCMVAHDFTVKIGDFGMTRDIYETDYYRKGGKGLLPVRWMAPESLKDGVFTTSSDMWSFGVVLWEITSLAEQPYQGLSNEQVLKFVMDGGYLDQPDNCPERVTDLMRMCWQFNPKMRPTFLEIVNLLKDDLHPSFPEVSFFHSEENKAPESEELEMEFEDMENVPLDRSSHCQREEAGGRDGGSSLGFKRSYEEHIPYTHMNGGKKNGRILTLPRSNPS
Sequence of human insulin receptor (P06213 28-746 isoform P06213-2 limits assumed): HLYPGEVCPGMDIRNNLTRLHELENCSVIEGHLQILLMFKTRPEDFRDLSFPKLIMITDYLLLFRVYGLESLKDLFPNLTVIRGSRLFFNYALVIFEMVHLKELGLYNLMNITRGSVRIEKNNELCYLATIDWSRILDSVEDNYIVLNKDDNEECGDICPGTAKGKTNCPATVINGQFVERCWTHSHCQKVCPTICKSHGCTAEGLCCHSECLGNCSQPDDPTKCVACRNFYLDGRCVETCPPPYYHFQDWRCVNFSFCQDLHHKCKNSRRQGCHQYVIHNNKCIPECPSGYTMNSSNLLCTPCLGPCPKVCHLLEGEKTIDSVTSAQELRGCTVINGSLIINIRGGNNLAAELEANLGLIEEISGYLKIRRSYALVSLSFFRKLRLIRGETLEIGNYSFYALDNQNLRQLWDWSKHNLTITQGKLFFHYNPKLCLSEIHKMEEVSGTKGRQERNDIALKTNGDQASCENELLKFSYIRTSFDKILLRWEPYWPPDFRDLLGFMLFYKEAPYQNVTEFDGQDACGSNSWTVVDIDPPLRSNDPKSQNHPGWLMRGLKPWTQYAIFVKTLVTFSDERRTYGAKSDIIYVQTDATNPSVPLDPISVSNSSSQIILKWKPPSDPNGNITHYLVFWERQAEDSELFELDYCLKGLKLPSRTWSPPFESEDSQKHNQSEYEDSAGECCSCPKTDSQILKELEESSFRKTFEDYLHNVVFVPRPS
Sequence of human insulin receptor (P06213 763-1382 partner limits assumed): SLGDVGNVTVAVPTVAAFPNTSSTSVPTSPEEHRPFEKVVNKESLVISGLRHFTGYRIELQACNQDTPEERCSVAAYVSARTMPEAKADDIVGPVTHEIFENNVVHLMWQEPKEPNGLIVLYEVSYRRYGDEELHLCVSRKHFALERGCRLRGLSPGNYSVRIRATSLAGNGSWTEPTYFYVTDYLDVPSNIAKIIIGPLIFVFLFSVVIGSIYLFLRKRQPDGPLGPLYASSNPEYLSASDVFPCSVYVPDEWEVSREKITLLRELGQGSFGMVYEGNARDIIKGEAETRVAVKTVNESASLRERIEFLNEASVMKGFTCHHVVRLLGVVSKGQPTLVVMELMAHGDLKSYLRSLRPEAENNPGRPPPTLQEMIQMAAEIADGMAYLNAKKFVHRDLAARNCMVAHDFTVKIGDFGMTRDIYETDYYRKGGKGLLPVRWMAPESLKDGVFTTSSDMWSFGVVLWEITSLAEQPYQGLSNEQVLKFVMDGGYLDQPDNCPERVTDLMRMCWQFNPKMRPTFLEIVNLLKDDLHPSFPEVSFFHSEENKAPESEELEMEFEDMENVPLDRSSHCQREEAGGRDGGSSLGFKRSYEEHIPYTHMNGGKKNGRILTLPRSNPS
For the substance “B(1-29)-B29A-VGLSSGQ-A(1-21)-A8K(N(eps)hexadecandioyl-gGlu)-A18Q Human Insulin [Example 6]”, the “insulin receptor binding relative to that of human insulin” value was found to be 73%.

In the case of “B(1-29)-B29A-VGLSSGQ-A(1-21)-A15K(N(eps)-hexadecandioyl-g-L-Glu)-A18Q Human Insulin [Example 9]”, the “insulin receptor binding relative to that of human insulin” value is 17.4%. Consider “B(1-29)-B29A-VGLSSGQ-A(1-21)-A18K(N(eps)hexadecandioyl-gGlu) Human Insulin [Example 1]”, for which the “insulin receptor binding relative to that of human insulin” value amounted to 25%.

Take “B(1-29)-B29A-VGLSSGQ-A(1-21)-A18K(N(eps)myristoyl) Human Insulin [Example 3]”: the “insulin receptor binding relative to that of human insulin” value is listed as 27%.

On to “B(1-29)-B29A-VGLSSGQ-A(1-22)-A18Q, A22K(N(eps)hexadecandioyl-gGlu) Human Insulin [Example 4]”, for which the “insulin receptor binding relative to that of human insulin” value was found to be 44%. The same measure, in the same setting: as for “B(1-29)-B29A-VGLSSGQ-A(1-22)-A18Q, A22K(N(eps)myristoyl) Human Insulin [Example 2]”, the figure is 62%; as for “B(1-29)-B29A-VGLSSGQ-A(1-22)-A18Q, A22K(N(eps)octadecandioyl) Human Insulin [Example 5]”, 24%. Still for that read-out and setting: as for “B(1-29)-B29A-VGLSSGQ-A(1-22)-A18Q-A22K((eps)heptadecandioyl-g-Glu) Human Insulin [Example 10]”, the figure is 43%. The same measure, in the same setting: the value for “B(1-29)-B29H-TGLGSGR-A(1-21)-A18K(N-eps-hexadecandioyl-g-L-Glu)-A21 G Human insulin [Example 7]” was 45.7%; that for “B(1-29)-B29Q-TGLGSCR-A(1-22)-A18Q, A21 G-A22K(N (eps)hexadecand ioyl-g-LGlu) Human Insulin [Example 8]” was 112.8%.

A further experiment has as its target purified recombinant human insulin receptor-exon 11 (human) (UniProt P06213). Description: assay (I): SPA, displacement of A14 Tyr[125I]-human insulin from recombinant human insulin receptor.
Details: not given
Consider “B(1-29)-B29A-VGLSSGQ-A(1-21)-A8K(N(eps)hexadecandioyl-gGlu)-A18Q Human Insulin (from UniProt P01308 25-53; P01308 90-110) (ligand)”, for which the insulin receptor binding relative to that of human insulin is 73%. Same read-out and setting: as for “B(1-29)-B29A-VGLSSGQ-A(1-21)-A15K(N(eps)-hexadecandioyl-g-L-Glu)-A18Q Human Insulin (from UniProt P01308 25-53; P01308 90-110) (ligand)”, the figure is 17.4%; as for “B(1-29)-B29A-VGLSSGQ-A(1-21)-A18K(N(eps)hexadecandioyl-gGlu) Human Insulin (from UniProt P01308 25-53; P01308 90-110) (ligand)”, 25%; as for “B(1-29)-B29A-VGLSSGQ-A(1-21)-A18K(N(eps)myristoyl) Human Insulin (from UniProt P01308 25-53; P01308 90-110) (ligand)”, 27%. Same read-out and setting: the value for “B(1-29)-B29A-VGLSSGQ-A(1-22)-A18Q, A22K(N(eps)hexadecandioyl-gGlu) Human Insulin (from UniProt P01308 25-53; P01308 90-110) (ligand)” was 44%; that for “B(1-29)-B29A-VGLSSGQ-A(1-22)-A18Q, A22K(N(eps)myristoyl) Human Insulin (from UniProt P01308 25-53; P01308 90-110) (ligand)” was 62%; that for “B(1-29)-B29A-VGLSSGQ-A(1-22)-A18Q, A22K(N(eps)octadecandioyl) Human Insulin (from UniProt P01308 25-53; P01308 90-110) (ligand)” was 24%. As to “B(1-29)-B29A-VGLSSGQ-A(1-22)-A18Q-A22K((eps)heptadecandioyl-g-Glu) Human Insulin (from UniProt P01308 25-53; P01308 90-110) (ligand)”, the insulin receptor binding relative to that of human insulin is 43%.

“B(1-29)-B29H-TGLGSGR-A(1-21)-A18K(N-eps-hexadecandioyl-g-L-Glu)-A21 G Human insulin (from UniProt P01308 25-53; P01308 90-110) (ligand)”: the insulin receptor binding relative to that of human insulin amounted to 45.7%.

With “B(1-29)-B29Q-TGLGSCR-A(1-22)-A18Q, A21 G-A22K(N (eps)hexadecand ioyl-g-LGlu) Human Insulin (from UniProt P01308 25-53; P01308 90-110) (ligand)”, the insulin receptor binding relative to that of human insulin came out at 113%.
